Measurements as given in patent publication US20130130317A1, “METHOD FOR PRODUCING SUBSTANCE” (KYOWA HAKKO KIRIN CO., LTD, priority 2010, published 2013).
Converted amounts (≈) assume the structure as drawn. Peptide text beside a SMILES is read from it.

What was measured:
[1] = cited from earlier work
[2] = H2O, 20° C.; cited from earlier work
[3] = Precipitation in media for cell culture on storage; assay type: physicochemical; conditions: 5.0 mmol/L in medium, stored at 4° C., after 3 days; for precipitation in the medium for cell culture: 20° C. or room temperature
Description: The following media for cell culture were prepared to compare differences in precipitation therebetween.
In 700 mL of water, 31.6 g of AGT Efficient Feed A (manufactured by Invitrogen, Catalog No. AG090231P7), 0.50 mL of polyamine solution (manufactured by Invitrogen, Catalog No. AG090232P8), 27.2 g of AGT Efficient Feed B (manufactured by Invitrogen, Catalog No. AG090230P7), 30.0 g of Hydrolysate (manufactured by DMV, Catalog No. P42474), 70.0 g of glucose (manufactured by Wako Pure Chemical Industries, Catalog No. 041-00595), and 5.0 g of L-(+)-glutamine (manufactured by Wako Pure Chemical Industries, Catalog No. 078-00525) or 7.4 g of L-alanyl-L-glutamine (manufactured by Kyowa Hakko Bio) were mixed.
After stirring for approximately 30 minutes, 7.0 mL of 5 mol/L HCl aqueous solution (manufactured by Wako Pure Chemical Industries, Catalog No. 081-05435) was added, followed by further stirring for approximately 20 minutes and pH was adjusted to 6.5. Thereafter, 50 mL of an alkaline solution containing 0.5 mol/L of NaOH (manufactured by Junsei Chemical, Catalog No. 39155-0301), 100 mmol/L of L-tyrosine disodium salt (manufactured by Sigma, Catalog No. T1145-100G), and 100 mmol/L of L-cystine dihydrochloride (manufactured by Wako Pure Chemical Industries, Catalog No. 034-05322) was added to the prepared aqueous solution of pH 6.5.
A volume of the aqueous solution was adjusted to 1 L with water, followed by stirring for approximately 20 minutes so as to prepare a medium for cell culture. In the medium for cell culture, L-tyrosine disodium salt and L-cystine dihydrochloride were substituted with the same concentration (5.0 mmol/L) of L-alanyl-L-tyrosine (manufactured by Kyowa Hakko Bio) and bis-L-alanyl-L-cysteine (manufactured by Kyowa Hakko Bio) to prepare media for cell culture, respectively. The prepared media for cell culture were stored under three conditions of at 4° C. (refrigerator, manufactured by Hoshizaki), 20° C. (e-Cooling Bucket, manufactured by Taitec), or room temperature.

[4] = tested on: antibody X-expressing CHO cells; experiment: Fed-batch culture of CHO cells: number of living cells and survival rate; assay type: cell-based, Chinese hamster; conditions: 13 days of culture
Description: The following feed media for cell culture were prepared, and fed-batch culture was carried out using CHO cells for comparison.
(§1) The feed medium was composed of 31.6 g/L of AGT Efficient Feed A (manufactured by Invitrogen, Catalog No. AG090231P7), 0.50 ml/L of polyamine solution (manufactured by Invitrogen, Catalog No. AG090232P8), 27.2 g/L of AGT Efficient Feed B (manufactured by Invitrogen, Catalog No. AG090230P7), 5.0 g/L of L-(+)-glutamine (manufactured by Wako Pure Chemical Industries, Catalog No. 078-00525), 30.0 g/L of hydrolysates (manufactured by DMV, Catalog No. P42474), 70.0 g/L of glucose (manufactured by Wako Pure Chemical Industries, Catalog No. 041-00595), 5.0 mmol/L of L-alanyl-L-tyrosine (Kyowa Hakko Bio), and 5.0 mmol/L, 10 mmol/L or 16 mmol/L of bis-L-alanyl-L-cysteine (manufactured by Kyowa Hakko Bio), and prepared in the same manner as in Example 1.
(§2) In the culture using antibody X-expressing CHO cells, 4.0 mmol/L of glutamine (manufactured by Invitrogen, Catalog No. 25030)-containing EX-CELL325 (manufactured by SAFC, Catalog No. 14340C-1000mL) was used as a main culture medium. The feed medium was added to perform fed-batch culture.

[5] = tested on: antibody X-expressing CHO cells; experiment: Antibody titer in fed-batch culture of CHO cells; assay type: cell-based, Chinese hamster; conditions: 13 days of culture
Description: as §1, §2
In order to examine antibody production, antibody titer was measured at 13 days of culture in the fed-batch culture of CHO cells having an ability to produce the antibody of Example 2. In the feed medium, the […] 0.75 g/L at 5.0 mmol/L, 0.79 g/L at 10 mmol/L, and 0.78 g/L at 16 mmol/L.

Cl.N[C@@H](CS)C(=O)O [cysteine hydrochloride]
stability in an aqueous solution [1]: low stability

N[C@@H](CSSC[C@H](N)C(=O)O)C(=O)O [cystine]
solubility [2]: 100 µg/mL (≈ 416 µM)

L-tyrosine disodium salt
precipitation in the medium for cell culture [3]: precipitations were observed
precipitation in the medium, low temperature compared with other storage conditions [3]: more precipitation was observed

Cl.Cl.N[C@@H](CSSC[C@H](N)C(=O)O)C(=O)O [L-cystine dihydrochloride]
precipitation in the medium for cell culture [3]: precipitations were observed
precipitation in the medium, low temperature compared with other storage conditions [3]: more precipitation was observed

C[C@H](N)C(=O)N[C@@H](Cc1ccc(O)cc1)C(=O)O [L-alanyl-L-tyrosine] (H-Ala-Tyr-OH)
precipitation in the medium for cell culture [3]: no precipitation

C[C@H](N)C(=O)N(C(=O)[C@H](C)N)[C@@H](CS)C(=O)O [bis-L-alanyl-L-cysteine]
precipitation in the medium for cell culture [3]: no precipitation
Number of living cells ([4]; 5 mmol/L in feed medium): 28.6 10^5 cells/mL
Survival rate ([4]; 5 mmol/L in feed medium): 55.0%
Number of living cells ([4]; 10 mmol/L in feed medium): 44.1 10^5 cells/mL
Survival rate ([4]; 10 mmol/L in feed medium): 78.7%
Number of living cells ([4]; 16 mmol/L in feed medium): 58.1 10^5 cells/mL
Survival rate ([4]; 16 mmol/L in feed medium): 86.6%
antibody titer ([5]; 5.0 mmol/L in feed medium): 0.75 g/L
antibody titer ([5]; 10 mmol/L in feed medium): 0.79 g/L
antibody titer ([5]; 16 mmol/L in feed medium): 0.78 g/L
